In experiment [1] the target is T1, BaF3 cells expressing the target EGFR mutations (Homo sapiens, UniProt P00533, T790M/L858R, cells depend on it).
T1 construct: IC50, BAF3 EGFR L858R-T790M PURO POOL; other: BAF3 EGFR L858R-T790M PURO POOL cells, MTT; IC50, BAF3 EGFR L858R-T790M PURO POOL; other: BAF3 EGFR L858R-T790M PURO POOL cells; MTT
Put plainly: Antiproliferative activity (MTT) against BaF3 cells expressing the target EGFR mutations. In kind it is cell-based. As to conditions: BAF3 EGFR L858R-T790M PURO POOL cells, read-out: IC50, BAF3 EGFR L858R-T790M PURO POOL. Summed up: (§1)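 Growth inhibition of EGFR-mutant BaF3 cells was assessed with an MTT assay. A BaF3 line expressing wildtype EGFR served as comparator.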

Experiment [2] addresses T2, BaF3 cells expressing the target EGFR mutations (Homo sapiens, UniProt P00533, T790M, cells depend on it, form not given).
T2 construct: IC50, BAF3 EGFR DEL T790M PURO POOL; other: BAF3 EGFR DEL T790M PURO POOL cells, MTT; other: BAF3 EGFR DEL T790M PURO POOL cells; MTT
The description is as above. In kind it is cell-based. The settings on record: BAF3 EGFR DEL T790M PURO POOL cells, read-out: IC50, BAF3 EGFR DEL T790M PURO POOL. Summed up: as §1

Experiment [3] deals with human EGFR (native sequence) (Homo sapiens, UniProt P00533). Put plainly: Kinase inhibitory activity against human EGFR (native sequence). In kind it is biochemical. The settings on record: 10 pt curves, 3 μM top concentration, 10 μM ATP; read-out: IC50 for kinase inhibition, EGFR. Summed up: (§2)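 Compounds were titrated over ten points starting at 3 μM, each point in singlicate, and kinase activity was measured in the presence of 10 μM ATP.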
Chain of human EGFR (native sequence) (P00533 25-1210): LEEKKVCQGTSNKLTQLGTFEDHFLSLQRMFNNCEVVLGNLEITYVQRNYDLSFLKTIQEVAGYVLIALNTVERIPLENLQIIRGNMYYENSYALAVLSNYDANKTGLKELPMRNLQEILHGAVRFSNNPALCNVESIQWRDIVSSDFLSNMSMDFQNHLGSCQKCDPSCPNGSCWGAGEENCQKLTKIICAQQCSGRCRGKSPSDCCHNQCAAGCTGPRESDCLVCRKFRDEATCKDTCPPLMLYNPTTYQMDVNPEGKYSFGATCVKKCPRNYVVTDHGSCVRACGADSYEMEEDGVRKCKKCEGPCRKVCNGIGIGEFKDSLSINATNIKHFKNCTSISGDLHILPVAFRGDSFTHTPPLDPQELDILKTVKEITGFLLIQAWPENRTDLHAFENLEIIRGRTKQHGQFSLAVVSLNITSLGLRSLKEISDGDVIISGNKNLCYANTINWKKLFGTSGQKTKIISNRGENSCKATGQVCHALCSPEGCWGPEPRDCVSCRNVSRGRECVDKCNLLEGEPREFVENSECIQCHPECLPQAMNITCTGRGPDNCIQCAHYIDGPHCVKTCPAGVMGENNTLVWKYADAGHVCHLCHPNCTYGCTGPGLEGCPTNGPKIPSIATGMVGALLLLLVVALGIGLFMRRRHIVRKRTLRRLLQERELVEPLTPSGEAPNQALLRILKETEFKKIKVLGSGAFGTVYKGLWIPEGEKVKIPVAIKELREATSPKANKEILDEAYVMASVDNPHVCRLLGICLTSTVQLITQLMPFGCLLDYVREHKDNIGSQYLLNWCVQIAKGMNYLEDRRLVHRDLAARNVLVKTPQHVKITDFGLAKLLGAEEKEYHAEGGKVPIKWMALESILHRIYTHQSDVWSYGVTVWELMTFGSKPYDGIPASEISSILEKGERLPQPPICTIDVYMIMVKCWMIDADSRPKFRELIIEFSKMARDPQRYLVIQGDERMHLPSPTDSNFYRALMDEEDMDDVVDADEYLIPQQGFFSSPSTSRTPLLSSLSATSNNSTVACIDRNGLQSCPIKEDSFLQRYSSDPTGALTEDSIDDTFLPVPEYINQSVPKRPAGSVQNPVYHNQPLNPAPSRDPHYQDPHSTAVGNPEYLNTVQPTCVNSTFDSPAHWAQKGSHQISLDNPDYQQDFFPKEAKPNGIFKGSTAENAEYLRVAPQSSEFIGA

A further experiment has as its target EGFR L858R/T790M (Homo sapiens, UniProt P00533, L858R/T790M). Put plainly: Kinase inhibitory activity against EGFR bearing the L858R/T790M double mutation. In kind it is biochemical. As to conditions: 10 pt curves, 3 μM top concentration, 10 μM ATP; read-out: IC50 for kinase inhibition, EGFR L858R T790M. Summed up:
as §2

The subject of experiment [4] is BaF3 cells expressing wildtype EGFR. In words: Antiproliferative activity (MTT) against control BaF3 cells expressing wildtype EGFR. In kind it is cell-based. As to conditions: Mus musculus, BAF3 parental cells. In a few lines: as §1
Another experiment has as its target EGFR L858R (Homo sapiens, UniProt P00533, L858R). In words: Kinase inhibitory activity against EGFR bearing the L858R mutation. In kind it is biochemical. As to conditions: 10 pt curves, 3 μM top concentration, 10 μM ATP; read-out: IC50 for kinase inhibition, EGFR L858R. Summed up:
as §2

Chain of EGFR L858R/T790M (P00533 25-1210 T790M/L858R): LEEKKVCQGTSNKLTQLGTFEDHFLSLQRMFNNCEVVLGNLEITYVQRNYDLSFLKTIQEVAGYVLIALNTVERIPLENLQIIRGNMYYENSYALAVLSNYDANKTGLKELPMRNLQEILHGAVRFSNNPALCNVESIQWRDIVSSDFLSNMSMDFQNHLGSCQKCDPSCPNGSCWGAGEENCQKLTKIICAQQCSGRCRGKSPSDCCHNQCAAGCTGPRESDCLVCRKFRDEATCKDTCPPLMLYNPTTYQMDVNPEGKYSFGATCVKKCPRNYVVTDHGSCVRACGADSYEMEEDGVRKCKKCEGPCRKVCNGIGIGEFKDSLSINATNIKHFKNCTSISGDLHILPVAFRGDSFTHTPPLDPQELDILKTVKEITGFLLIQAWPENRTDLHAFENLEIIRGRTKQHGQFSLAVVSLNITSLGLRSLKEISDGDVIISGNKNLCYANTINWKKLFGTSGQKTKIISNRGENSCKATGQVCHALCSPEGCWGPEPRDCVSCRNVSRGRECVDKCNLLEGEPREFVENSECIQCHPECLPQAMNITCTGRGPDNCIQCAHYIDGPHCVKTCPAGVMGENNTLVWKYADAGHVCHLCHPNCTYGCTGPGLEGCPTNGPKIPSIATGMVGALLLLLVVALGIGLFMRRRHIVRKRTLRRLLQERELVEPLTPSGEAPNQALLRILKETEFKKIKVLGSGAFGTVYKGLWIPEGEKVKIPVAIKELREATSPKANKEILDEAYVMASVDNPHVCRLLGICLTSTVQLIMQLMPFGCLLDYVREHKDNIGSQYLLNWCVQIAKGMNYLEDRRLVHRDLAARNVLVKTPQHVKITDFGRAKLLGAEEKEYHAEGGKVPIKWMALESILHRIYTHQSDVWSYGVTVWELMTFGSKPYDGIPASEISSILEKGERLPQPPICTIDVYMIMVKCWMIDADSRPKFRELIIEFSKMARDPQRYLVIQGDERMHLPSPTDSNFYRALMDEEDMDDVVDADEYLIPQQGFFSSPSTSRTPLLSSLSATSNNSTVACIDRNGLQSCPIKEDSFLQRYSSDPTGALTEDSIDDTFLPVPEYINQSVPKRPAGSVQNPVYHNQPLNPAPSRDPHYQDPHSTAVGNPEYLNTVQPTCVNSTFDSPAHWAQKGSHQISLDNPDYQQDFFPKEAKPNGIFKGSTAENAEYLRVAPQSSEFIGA
T1 sequence (P00533 whole entry T790M/L858R): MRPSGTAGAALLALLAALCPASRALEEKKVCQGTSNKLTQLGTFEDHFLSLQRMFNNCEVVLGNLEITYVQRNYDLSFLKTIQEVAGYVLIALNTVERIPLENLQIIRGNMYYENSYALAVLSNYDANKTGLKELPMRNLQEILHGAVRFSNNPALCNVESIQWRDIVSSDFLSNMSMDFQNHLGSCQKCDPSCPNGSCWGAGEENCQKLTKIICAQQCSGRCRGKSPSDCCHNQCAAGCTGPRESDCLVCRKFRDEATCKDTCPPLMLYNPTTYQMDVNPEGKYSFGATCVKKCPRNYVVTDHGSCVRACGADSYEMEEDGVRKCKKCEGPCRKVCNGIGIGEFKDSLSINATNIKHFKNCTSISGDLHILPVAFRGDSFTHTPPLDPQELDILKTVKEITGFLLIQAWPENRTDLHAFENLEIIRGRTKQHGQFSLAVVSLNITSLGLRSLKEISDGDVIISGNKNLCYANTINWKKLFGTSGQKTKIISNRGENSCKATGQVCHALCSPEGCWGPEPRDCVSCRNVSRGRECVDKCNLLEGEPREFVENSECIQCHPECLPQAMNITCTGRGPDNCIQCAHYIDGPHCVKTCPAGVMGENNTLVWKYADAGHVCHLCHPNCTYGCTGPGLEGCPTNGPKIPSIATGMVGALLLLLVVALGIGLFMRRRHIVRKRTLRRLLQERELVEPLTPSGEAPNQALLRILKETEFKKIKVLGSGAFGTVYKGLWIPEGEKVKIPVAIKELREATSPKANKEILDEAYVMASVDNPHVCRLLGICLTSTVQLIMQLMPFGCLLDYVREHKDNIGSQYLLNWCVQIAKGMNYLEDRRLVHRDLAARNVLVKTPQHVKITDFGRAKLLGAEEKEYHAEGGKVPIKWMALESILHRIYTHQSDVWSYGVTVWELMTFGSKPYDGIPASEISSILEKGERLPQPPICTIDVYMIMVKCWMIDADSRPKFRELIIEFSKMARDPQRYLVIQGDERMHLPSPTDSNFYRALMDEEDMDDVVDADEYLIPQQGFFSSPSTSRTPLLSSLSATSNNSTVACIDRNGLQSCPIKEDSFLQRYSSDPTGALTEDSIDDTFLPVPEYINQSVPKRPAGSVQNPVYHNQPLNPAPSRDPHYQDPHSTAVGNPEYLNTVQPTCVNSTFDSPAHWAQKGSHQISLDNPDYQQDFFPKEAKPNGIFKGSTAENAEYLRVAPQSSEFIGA
Chain of EGFR L858R (P00533 25-1210 L858R): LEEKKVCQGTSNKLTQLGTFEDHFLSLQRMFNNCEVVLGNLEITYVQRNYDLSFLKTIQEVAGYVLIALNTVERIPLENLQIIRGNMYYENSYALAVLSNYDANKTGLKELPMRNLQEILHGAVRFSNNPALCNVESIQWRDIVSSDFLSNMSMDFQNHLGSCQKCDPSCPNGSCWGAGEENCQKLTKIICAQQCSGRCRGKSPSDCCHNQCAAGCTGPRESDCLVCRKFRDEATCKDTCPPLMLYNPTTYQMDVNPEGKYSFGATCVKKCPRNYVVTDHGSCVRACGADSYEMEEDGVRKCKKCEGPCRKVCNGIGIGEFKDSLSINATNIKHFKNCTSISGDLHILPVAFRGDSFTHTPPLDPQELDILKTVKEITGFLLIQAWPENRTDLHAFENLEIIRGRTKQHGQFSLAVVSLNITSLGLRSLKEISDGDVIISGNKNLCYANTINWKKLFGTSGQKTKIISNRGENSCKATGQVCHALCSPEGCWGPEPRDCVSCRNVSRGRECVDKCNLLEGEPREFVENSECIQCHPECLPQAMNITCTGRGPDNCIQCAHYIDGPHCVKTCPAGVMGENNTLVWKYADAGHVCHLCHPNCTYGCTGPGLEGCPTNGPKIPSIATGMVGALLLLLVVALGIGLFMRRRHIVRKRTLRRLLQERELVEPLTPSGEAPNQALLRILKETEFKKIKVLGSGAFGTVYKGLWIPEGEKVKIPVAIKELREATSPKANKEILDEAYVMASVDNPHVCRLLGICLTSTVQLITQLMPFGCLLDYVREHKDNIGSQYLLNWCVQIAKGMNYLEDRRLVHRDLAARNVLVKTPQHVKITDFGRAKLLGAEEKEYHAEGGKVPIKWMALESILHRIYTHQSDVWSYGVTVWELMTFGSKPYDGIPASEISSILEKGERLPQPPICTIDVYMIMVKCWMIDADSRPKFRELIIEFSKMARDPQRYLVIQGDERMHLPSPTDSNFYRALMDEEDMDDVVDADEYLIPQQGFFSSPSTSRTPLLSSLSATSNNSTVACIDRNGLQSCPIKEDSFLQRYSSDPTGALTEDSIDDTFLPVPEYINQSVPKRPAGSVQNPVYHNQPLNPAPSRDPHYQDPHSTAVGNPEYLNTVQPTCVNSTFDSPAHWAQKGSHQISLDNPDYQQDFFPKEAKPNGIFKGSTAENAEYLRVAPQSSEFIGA

Broadly, the IC50 is the concentration at which inhibition is half-maximal. As for `C=CC(=O)Nc1ccc(CC)c(Nc2ncc(Cl)c(Nc3ccccc3P(C)(C)=O)n2)c1` [Example 135, N-(3-((5-chloro-4-((2-(dimethylphosphoryl)phenyl)amino)pyrimidin-2-yl)amino)-4-ethylphenyl)acrylamide], the GI50 in experiment [1] and in experiment [2] was < 50 nM throughout. Moreover, the IC50 is < 50 nM in experiment [3], < 50 nM at EGFR L858R/T790M, ≥ 250 nM in experiment [4] and < 50 nM at EGFR L858R.

Consider `C=CC(=O)Nc1ccc(Cl)c(Nc2ncc(Cl)c(Nc3ccccc3P(C)(C)=O)n2)c1` [Example 136, N-(4-chloro-3-((5-chloro-4-((2-(dimethylphosphoryl)phenyl)amino)pyrimidin-2-yl)amino)phenyl)acrylamide], for which the GI50 in experiment [1] and in experiment [2] was < 50 nM throughout. The half-maximal inhibitory concentration (IC50) in experiment [3] was < 50 nM; on EGFR L858R/T790M, < 50 nM; in experiment [4] it was ≥ 250 nM; on EGFR L858R, < 50 nM.

Consider `COc1ccc(NC(=O)CCl)cc1Nc1ncc(Cl)c(Nc2ccccc2P(C)(C)=O)n1` [Example 137, 2-chloro-N-(3-((5-chloro-4-((2-(dimethylphosphoryl)phenyl)amino)pyrimidin-2-yl)amino)-4-methoxyphenyl)acetamide], for which the GI50 in experiment [1] and in experiment [2] was < 50 nM in each case. Also, the IC50 was < 50 nM in experiment [3], < 50 nM at EGFR L858R/T790M, ≥ 250 nM in experiment [4] and < 50 nM at EGFR L858R.

For `C=CC(=O)Nc1ccc(OC2COC2)c(Nc2ncc(Cl)c(Nc3ccccc3P(C)(C)=O)n2)c1` [Example 138, N-(3-((5-chloro-4-((2-(dimethylphosphoryl)phenyl)amino)pyrimidin-2-yl)amino)-4-(oxetan-3-yloxy)phenyl)acrylamide], the GI50 in experiment [1] and in experiment [2] was ≥ 250 nM throughout. In addition, the IC50 (in experiment [3]; on EGFR L858R/T790M; in experiment [4]; at EGFR L858R) was ≥ 250 nM throughout.

For the compound `C=CC(=O)Nc1ccc(OC)c(Nc2ncc(C#N)c(Nc3ccccc3P(C)(C)=O)n2)c1` [Example 139, N-(3-((5-cyano-4-((2-(dimethylphosphoryl)phenyl)amino)pyrimidin-2-yl)amino)-4-methoxyphenyl)acrylamide], the GI50 was ≥ 250 nM in experiment [1] and 101 to 250 nM in experiment [2]. The IC50 in experiment [3] was < 50 nM; on EGFR L858R/T790M, < 50 nM; in experiment [4], ≥ 250 nM; at EGFR L858R, < 50 nM.

For `COc1cc(C)c(NC(=O)CCl)cc1Nc1ncc(Cl)c(Nc2ccccc2P(C)(C)=O)n1` [Example 140, 2-chloro-N-(5-((5-chloro-4-((2-(dimethylphosphoryl)phenyl)amino)pyrimidin-2-yl)amino)-4-methoxy-2-methylphenyl)acetamide], the GI50 in experiment [1] and in experiment [2] was < 50 nM in each case. The IC50 was < 50 nM in experiment [3], < 50 nM on EGFR L858R/T790M, ≥ 250 nM in experiment [4] and < 50 nM at EGFR L858R.

As to `COc1ccc(NC(=O)CCl)cc1Nc1ncc(C)c(Nc2ccccc2P(C)(C)=O)n1` [Example 141, 2-chloro-N-(3-((4-((2-(dimethylphosphoryl)phenyl)amino)-5-methylpyrimidin-2-yl)amino)-4-methoxyphenyl)acetamide], the GI50 in experiment [1] and in experiment [2] was < 50 nM throughout. Further, the IC50 in experiment [3] is < 50 nM; at EGFR L858R/T790M, < 50 nM; in experiment [4] it was ≥ 250 nM; on EGFR L858R, < 50 nM.

As for `C=CC(=O)Nc1cc(Nc2ncc(Cl)c(Nc3ccccc3P(C)(C)=O)n2)c(OC)cc1OC(COCC)CN(C)C` (stereo not drawn) [Example 142, N-(5-((5-chloro-4-((2-(dimethylphosphoryl)phenyl)amino)pyrimidin-2-yl)amino)-2-((1-(dimethylamino)-3-ethoxypropan-2-yl)oxy)-4-methoxyphenyl)acrylamide], the GI50 in experiment [1] and in experiment [2] was < 50 nM in each case. Besides, the IC50 in experiment [3] is < 50 nM; at EGFR L858R/T790M, < 50 nM; in experiment [4], ≥ 250 nM; at EGFR L858R, < 50 nM.

Turning to `C=CC(=O)Nc1cc(Nc2ncc(Cl)c(Nc3ccccc3P(C)(C)=O)n2)c(C)cc1OC(COC)CN(C)C` (stereo not drawn) [Example 143], the GI50 in experiment [1] and in experiment [2] was < 50 nM each time. Besides, the IC50 in experiment [3] was < 50 nM; on EGFR L858R/T790M, < 50 nM; in experiment [4] it was ≥ 250 nM; at EGFR L858R, < 50 nM.

`C=CC(=O)Nc1cc(Nc2ncc(Cl)c(Nc3ccccc3P(C)(C)=O)n2)c(Cl)cc1OC(COC)CN(C)C` (stereo not drawn) [Example 145, N-(4-chloro-5-((5-chloro-4-((2-(dimethylphosphoryl)phenyl)amino)pyrimidin-2-yl)amino)-2-((1-(dimethylamino)-3-methoxypropan-2-yl)oxy)phenyl)acrylamide]: the GI50 in experiment [1] and in experiment [2] was < 50 nM each time. Moreover, the IC50 was < 50 nM in experiment [3], < 50 nM at EGFR L858R/T790M, ≥ 250 nM in experiment [4] and < 50 nM at EGFR L858R.

`COc1ccc(NC(=O)CF)cc1Nc1ncc(Cl)c(Nc2ccccc2P(C)(C)=O)n1` [Example 147, N-(3-((5-chloro-4-((2-(dimethylphosphoryl)phenyl)amino)pyrimidin-2-yl)amino)-4-methoxyphenyl)-2-fluoroacetamide]: the GI50 in experiment [1] and in experiment [2] was ≥ 250 nM in each case. For the same compound, the IC50 in experiment [3] is ≥ 250 nM; at EGFR L858R/T790M, 101 to 250 nM; in experiment [4] it was ≥ 250 nM; on EGFR L858R, 50 to 100 nM.

In the case of `Cc1ccc(NC(=O)CCl)cc1Nc1ncc(Cl)c(Nc2ccccc2P(C)(C)=O)n1` [Example 148, 2-chloro-N-(3-((5-chloro-4-((2-(dimethylphosphoryl)phenyl)amino)pyrimidin-2-yl)amino)-4-methylphenyl)acetamide], the GI50 in experiment [1] and in experiment [2] was < 50 nM each time. Further, the IC50 in experiment [3] is < 50 nM; on EGFR L858R/T790M, < 50 nM; in experiment [4], ≥ 250 nM; at EGFR L858R it was < 50 nM.

For `COc1cc(F)c(NC(=O)CCl)cc1Nc1ncc(Cl)c(Nc2ccccc2P(C)(C)=O)n1` [Example 149, 2-chloro-N-(5-((5-chloro-4-((2-(dimethylphosphoryl)phenyl)amino)pyrimidin-2-yl)amino)-2-fluoro-4-methoxyphenyl)acetamide], the GI50 in experiment [1] and in experiment [2] was < 50 nM throughout. The IC50 in experiment [3] is < 50 nM; at EGFR L858R/T790M, < 50 nM; in experiment [4] it was ≥ 250 nM; at EGFR L858R, < 50 nM.

Regarding `COc1ccc(NS(=O)(=O)CCl)cc1Nc1ncc(Cl)c(Nc2ccccc2P(C)(C)=O)n1` [Example 150, 1-chloro-N-(3-((5-chloro-4-((2-(dimethylphosphoryl)phenyl)amino)pyrimidin-2-yl)amino)-4-methoxyphenyl)methanesulfonamide], the GI50 in experiment [1] and in experiment [2] was ≥ 250 nM each time. In addition, the IC50 (in experiment [3]; at EGFR L858R/T790M; in experiment [4]; at EGFR L858R) was ≥ 250 nM each time.

In the case of `C=CC(=O)Nc1cc(Nc2ncc(Cl)c(Nc3ccccc3P(C)(C)=O)n2)c(C)cc1C#CCN(C)C` [Example 151, N-(5-((5-chloro-4-((2-(dimethylphosphoryl)phenyl)amino)pyrimidin-2-yl)amino)-2-(3-(dimethylamino)prop-1-yn-1-yl)-4-methylphenyl)acrylamide], the GI50 in experiment [1] and in experiment [2] was < 50 nM in each case. The IC50 in experiment [3] is < 50 nM; on EGFR L858R/T790M it was < 50 nM; in experiment [4], ≥ 250 nM; at EGFR L858R, < 50 nM.

For `C=CC(=O)Nc1cc(Nc2ncc(Cl)c(Nc3ccccc3P(C)(C)=O)n2)c(CC)cc1C#CCN(C)C` [Example 152, N-(5-((5-chloro-4-((2-(dimethylphosphoryl)phenyl)amino)pyrimidin-2-yl)amino)-2-(3-(dimethylamino)prop-1-yn-1-yl)-4-ethylphenyl)acrylamide], the GI50 in experiment [1] and in experiment [2] was < 50 nM each time. Besides, the IC50 in experiment [3] is < 50 nM; on EGFR L858R/T790M, < 50 nM; in experiment [4], ≥ 250 nM; at EGFR L858R it was < 50 nM.

The record behind these values is US9834571B2, “Compounds for inhibiting cell proliferation in EGFR-driven cancers” (ARIAD Pharmaceuticals, Inc., priority 2012, dated 2017).
